Like-named read-outs stand apart in the source and are kept apart here.

Our source for the IC50 values is patent US12516056B2, “Compounds for inhibition of janus kinase 1” (MANKIND PHARMA LTD., priority 2019, dated 2026).

In one assay the target is T1, Recombinant JAK1 (Homo sapiens, UniProt P23458).
T1 construct: purchased Carna Biosciences
As to the kind of experiment: JAK biochemical assay (LANCE Ultra TR-FRET), JAK1. Conditions: recombinant JAK1, TR-FRET; read-out: Biochemical Assay (μM) JAK1. A digest of the protocol: (§1)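 TR-FRET read-out of ULight substrate phosphorylation by recombinant kinase gives % inhibition relative to vehicle. The assay buffer is HEPES pH 7.5 with EGTA, MgCl2, DTT and Tween-20.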
On the technique in general: TR-FRET usually uses a lanthanide donor and a delayed reading to cut background.

A further assay has as its target T2, Recombinant TYK2 (Homo sapiens, UniProt P29597).
T2 construct: purchased Carna Biosciences
Description: JAK biochemical assay (LANCE Ultra TR-FRET), TYK2. Conditions: recombinant TYK2, TR-FRET; read-out: Biochemical Assay (μM) TYK2. A digest of the protocol: as §1

Assay [1] deals with STAT3 phosphorylation by IL-6 in TF-1 cells. As to the kind of experiment: JAK cellular assay: STAT3 phosphorylation by IL-6 in TF-1 cells (HTRF). It is filed as cell-based. Conditions: IL-6 30 ng/ml, pSTAT3 HTRF, read-out: Cell Based Assay (μM) TF-1/IL-6/pSTAT3. A digest of the protocol: (§2)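 Phospho-STAT3 (IL-6, 30 ng/ml) and phospho-STAT5 (GMCSF, 5 ng/ml) read by HTRF in lysates after 20 min cytokine exposure, minus unstimulated-cell background. Cells were serum-starved overnight, plated at 120,000/well, given compound 30 min at 37 °C beforehand; DMSO 0.2% final.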

Assay [2] concerns STAT5 phosphorylation by GMCSF in TF-1 cells. As to the kind of experiment: JAK cellular assay: STAT5 phosphorylation by GMCSF in TF-1 cells (HTRF). It is filed as cell-based. The settings on record: TF-1 cells, GMCSF 5 ng/ml, pSTAT5 HTRF, read-out: Cell Based Assay (μM) TF-1/GMCSF/pSTAT5. A digest of the protocol:
as §2

Assay [3] has as its system STAT5 phosphorylation by IL-2 in HT-2 cells. As to the kind of experiment: STAT5 phosphorylation by IL-2 in HT-2 cells (HTRF). The settings on record: IL-2 50 U/ml, pSTAT5 HTRF, read-out: Cell Based Assay (μM) HT-2/IL-2/pSTAT5. The format is cell-based. A digest of the protocol: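 Readout is HTRF detection of phospho-STAT5 in lysates, corrected for signal from unstimulated cells. Before lysis, HT-2 cells starved in 10% FBS medium received compound for 30 min (0.2% DMSO final, 37 °C), followed by 50 U/ml recombinant human IL-2 for 20 min.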

Assay [4] relates to IFN-γ production in NK 92 cells by IL-12. As to the kind of experiment: IFN-γ production in NK 92 cells by IL-12 (ELISA). The settings on record: NK92, IFN-γ secretion, read-out: Cell Based Assay (μM) NK-92/IL-2/IFN-γ. Background: ELISA stands for enzyme-linked immunosorbent assay.
Another assay concerns the target T3, Recombinant JAK2 (Homo sapiens, UniProt O60674).
T3 construct: purchased Carna Biosciences
Description: JAK biochemical assay (LANCE Ultra TR-FRET), JAK2. Conditions: recombinant JAK2, TR-FRET; read-out: Biochemical Assay (μM) JAK2. A digest of the protocol: as §1

The target in a further assay is T4, Recombinant JAK3 (Homo sapiens, UniProt P52333).
T4 construct: purchased Carna Biosciences
T4 sequence (P52333 1-1124): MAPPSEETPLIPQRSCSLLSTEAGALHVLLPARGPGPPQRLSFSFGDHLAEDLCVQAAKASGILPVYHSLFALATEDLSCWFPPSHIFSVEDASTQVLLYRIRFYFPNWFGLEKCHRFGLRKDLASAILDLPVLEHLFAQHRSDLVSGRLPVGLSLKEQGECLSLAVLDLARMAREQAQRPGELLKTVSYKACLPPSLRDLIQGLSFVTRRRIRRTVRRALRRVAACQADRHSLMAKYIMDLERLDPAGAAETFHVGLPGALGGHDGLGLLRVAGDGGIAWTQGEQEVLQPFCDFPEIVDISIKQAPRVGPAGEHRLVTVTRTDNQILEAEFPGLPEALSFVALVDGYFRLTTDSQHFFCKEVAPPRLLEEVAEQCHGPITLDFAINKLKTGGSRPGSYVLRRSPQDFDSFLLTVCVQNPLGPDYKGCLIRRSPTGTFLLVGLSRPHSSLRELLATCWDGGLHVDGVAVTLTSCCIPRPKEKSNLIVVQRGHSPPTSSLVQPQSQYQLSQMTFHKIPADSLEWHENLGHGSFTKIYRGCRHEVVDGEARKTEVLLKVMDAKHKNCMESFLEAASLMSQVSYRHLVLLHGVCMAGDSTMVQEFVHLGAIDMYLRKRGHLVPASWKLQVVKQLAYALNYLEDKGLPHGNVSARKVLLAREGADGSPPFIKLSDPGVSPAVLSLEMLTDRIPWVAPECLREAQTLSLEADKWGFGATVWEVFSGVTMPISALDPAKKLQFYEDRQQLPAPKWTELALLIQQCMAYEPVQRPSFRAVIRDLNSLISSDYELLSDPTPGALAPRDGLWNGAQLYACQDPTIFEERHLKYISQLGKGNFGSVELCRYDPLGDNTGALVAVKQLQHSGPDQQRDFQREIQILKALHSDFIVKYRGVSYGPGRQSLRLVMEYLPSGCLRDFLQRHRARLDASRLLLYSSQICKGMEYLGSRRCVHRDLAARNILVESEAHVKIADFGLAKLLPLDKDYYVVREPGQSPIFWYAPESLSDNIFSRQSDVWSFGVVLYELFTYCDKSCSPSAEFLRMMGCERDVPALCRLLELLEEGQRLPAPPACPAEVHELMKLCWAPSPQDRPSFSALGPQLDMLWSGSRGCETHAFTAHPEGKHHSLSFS
Description: JAK biochemical assay (LANCE Ultra TR-FRET), JAK3. Conditions: recombinant JAK3, TR-FRET; read-out: Biochemical Assay (μM) JAK3. A digest of the protocol:
as §1

T1 sequence (P23458 whole entry): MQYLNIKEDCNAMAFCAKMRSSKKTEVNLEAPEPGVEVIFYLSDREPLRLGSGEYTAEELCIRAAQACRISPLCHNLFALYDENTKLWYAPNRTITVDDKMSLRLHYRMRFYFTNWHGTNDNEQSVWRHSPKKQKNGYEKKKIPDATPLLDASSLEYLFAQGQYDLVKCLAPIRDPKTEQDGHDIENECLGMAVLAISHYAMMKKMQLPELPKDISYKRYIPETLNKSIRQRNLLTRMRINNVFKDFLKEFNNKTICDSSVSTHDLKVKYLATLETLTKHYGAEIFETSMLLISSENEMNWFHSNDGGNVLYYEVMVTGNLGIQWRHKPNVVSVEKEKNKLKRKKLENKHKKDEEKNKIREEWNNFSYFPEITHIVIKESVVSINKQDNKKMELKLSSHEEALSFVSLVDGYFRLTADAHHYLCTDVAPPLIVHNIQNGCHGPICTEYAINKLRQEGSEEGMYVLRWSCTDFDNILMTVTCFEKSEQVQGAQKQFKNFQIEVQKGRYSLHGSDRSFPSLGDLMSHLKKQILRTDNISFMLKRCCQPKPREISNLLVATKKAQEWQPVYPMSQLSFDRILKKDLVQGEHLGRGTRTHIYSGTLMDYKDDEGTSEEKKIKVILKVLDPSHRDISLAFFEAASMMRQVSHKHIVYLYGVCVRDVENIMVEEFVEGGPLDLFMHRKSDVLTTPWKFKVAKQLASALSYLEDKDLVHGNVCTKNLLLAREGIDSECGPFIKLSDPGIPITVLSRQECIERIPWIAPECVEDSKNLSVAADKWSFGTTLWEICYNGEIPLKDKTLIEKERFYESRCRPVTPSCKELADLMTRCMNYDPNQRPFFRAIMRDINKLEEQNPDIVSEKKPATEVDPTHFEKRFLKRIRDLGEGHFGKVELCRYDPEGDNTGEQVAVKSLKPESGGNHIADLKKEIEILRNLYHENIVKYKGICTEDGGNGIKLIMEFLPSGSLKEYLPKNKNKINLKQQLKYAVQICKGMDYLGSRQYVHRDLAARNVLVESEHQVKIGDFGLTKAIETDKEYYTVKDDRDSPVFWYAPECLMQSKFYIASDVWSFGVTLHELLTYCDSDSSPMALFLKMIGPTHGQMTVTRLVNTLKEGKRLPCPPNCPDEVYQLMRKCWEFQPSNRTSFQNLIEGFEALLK
T3 sequence (O60674 whole entry): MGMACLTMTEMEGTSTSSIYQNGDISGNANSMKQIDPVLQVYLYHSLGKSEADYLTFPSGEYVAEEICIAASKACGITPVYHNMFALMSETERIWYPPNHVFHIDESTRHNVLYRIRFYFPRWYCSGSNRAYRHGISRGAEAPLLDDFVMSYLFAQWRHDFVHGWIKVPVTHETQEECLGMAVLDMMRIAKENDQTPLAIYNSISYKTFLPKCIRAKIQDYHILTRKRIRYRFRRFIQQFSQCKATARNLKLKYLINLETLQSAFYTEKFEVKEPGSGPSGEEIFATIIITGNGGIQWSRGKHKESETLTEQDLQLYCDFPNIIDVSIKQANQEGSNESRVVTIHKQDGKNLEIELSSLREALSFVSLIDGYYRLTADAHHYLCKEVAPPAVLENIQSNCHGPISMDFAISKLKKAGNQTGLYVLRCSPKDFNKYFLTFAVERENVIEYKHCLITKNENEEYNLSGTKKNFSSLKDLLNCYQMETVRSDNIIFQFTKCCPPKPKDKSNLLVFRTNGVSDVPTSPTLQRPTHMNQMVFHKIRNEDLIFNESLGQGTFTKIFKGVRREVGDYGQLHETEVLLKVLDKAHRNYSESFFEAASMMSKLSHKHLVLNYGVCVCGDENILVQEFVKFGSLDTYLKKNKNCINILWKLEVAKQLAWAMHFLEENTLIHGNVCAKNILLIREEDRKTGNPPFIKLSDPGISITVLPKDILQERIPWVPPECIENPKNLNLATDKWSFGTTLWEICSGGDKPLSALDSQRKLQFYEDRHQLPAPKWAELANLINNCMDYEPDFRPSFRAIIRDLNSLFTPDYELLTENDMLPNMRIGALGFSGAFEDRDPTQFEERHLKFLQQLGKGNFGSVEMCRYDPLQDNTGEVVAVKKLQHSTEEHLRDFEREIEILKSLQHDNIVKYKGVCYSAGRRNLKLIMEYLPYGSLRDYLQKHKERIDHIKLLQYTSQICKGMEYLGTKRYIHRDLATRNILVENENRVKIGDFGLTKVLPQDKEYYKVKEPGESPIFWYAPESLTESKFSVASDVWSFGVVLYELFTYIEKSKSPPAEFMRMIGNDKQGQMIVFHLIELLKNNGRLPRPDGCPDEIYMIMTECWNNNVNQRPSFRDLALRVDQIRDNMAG
T2 sequence (P29597 whole entry): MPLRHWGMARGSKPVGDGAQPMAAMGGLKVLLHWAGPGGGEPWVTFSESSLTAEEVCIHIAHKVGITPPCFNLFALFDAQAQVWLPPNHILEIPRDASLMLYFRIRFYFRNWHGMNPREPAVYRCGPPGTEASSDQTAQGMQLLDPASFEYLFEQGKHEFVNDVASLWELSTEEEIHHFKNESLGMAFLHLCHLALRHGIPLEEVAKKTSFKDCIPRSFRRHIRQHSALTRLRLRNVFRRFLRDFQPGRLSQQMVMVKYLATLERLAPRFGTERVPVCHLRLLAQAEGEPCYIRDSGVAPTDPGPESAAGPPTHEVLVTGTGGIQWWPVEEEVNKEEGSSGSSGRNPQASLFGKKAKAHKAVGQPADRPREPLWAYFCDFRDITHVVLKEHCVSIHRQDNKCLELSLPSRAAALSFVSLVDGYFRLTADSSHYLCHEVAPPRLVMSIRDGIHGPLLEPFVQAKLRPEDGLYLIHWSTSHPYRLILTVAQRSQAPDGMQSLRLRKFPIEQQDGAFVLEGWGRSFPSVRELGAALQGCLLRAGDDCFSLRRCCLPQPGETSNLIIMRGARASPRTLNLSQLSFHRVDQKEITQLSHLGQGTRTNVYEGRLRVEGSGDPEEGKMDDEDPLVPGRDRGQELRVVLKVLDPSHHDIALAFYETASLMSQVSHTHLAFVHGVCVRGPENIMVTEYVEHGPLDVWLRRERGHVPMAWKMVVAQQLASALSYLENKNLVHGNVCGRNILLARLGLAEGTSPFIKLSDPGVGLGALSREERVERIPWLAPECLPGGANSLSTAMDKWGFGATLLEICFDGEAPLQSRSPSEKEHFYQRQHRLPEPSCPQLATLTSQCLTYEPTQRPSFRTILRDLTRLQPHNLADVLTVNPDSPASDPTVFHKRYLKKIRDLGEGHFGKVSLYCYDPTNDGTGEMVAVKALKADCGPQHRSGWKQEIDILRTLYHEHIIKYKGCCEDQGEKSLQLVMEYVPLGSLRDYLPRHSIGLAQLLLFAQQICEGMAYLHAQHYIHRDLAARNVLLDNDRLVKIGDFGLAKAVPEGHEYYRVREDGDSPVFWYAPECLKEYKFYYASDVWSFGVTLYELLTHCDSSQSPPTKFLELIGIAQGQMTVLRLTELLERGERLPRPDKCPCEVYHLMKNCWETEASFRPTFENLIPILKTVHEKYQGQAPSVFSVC

For the compound `CN1CCC([C@](O)(c2ccc(-n3cc(-c4ccnc5[nH]cnc45)cn3)nc2)C(F)(F)F)C1` (stereo partly drawn) [Example 1234, (S)-1-(6-(4-(3H-imidazo[4,5-b]pyridin-7-yl)-1H-pyrazol-1-yl)pyridin-3-yl)-2,2,2-trifluoro-1-(1-methylpyrrolidin-3-yl)ethanol], the IC50 at Recombinant JAK1 is 0.006 µM; on Recombinant TYK2, 0.67 µM; in assay [1] (Homo sapiens, TF-1, TF-1 cells) it was 0.14 µM; in assay [2] (Homo sapiens), above 1 µM; in assay [3] (HT2, HT-2 cells), 0.47 µM; in assay [4], above 1 µM.
As to `CC(C)N1CC(C(O)(c2ccc(-n3cc(-c4ccnc5[nH]cnc45)cn3)nc2)C(F)(F)F)C1` (centres unmarked) [Example 1237, 1-(6-(4-(3H-imidazo[4,5-b]pyridin-7-yl)-1H-pyrazol-1-yl)pyridin-3-yl)-2,2,2-trifluoro-1-(1-isopropylazetidin-3-yl)ethanol], the IC50 at Recombinant JAK2 is 0.01 µM; at Recombinant JAK3 it was 0.005 µM; in assay [1] (Homo sapiens, TF-1, TF-1 cells), 0.19 µM; in assay [2] (Homo sapiens), above 1 µM; in assay [3] (HT2, HT-2 cells), above 0.5 µM; in assay [4], above 3 µM.
As to `CC(C)N1CCC([C@](O)(c2ccc(-n3cc(-c4ccnc5[nH]cnc45)cn3)nc2)C(F)(F)F)C1` (stereo partly drawn) [Example 1226, (S)-1-(6-(4-(3H-imidazo[4,5-b]pyridin-7-yl)-1H-pyrazol-1-yl)pyridin-3-yl)-2,2,2-trifluoro-1-(1-isopropylpyrrolidin-3-yl)ethanol], the IC50 was below 0.01 µM at Recombinant JAK1; above 0.03 µM on Recombinant JAK2; above 0.03 µM at Recombinant JAK3; above 1 µM on Recombinant TYK2; above 0.5 µM in assay [1] (Homo sapiens, TF-1, TF-1 cells); above 1 µM in assay [2] (Homo sapiens). The IC50 in assay [3] (HT2, HT-2 cells) was above 0.75 µM.
As for `FC(F)(F)C(c1ccc(-n2cc(-c3ccnc4[nH]cnc34)cn2)nc1)C1COC1` (centres unmarked) [Example 1136, 7-(1-(5-(2,2,2-trifluoro-1-(oxetan-3-yl)ethyl)pyridin-2-yl)-1H-pyrazol-4-yl)-3H-imidazo[4,5-b]pyridine], the IC50 is below 0.1 µM on Recombinant JAK1; below 0.1 µM on Recombinant JAK2; below 0.1 µM at Recombinant JAK3; above 1 µM on Recombinant TYK2; 0.7 µM in assay [1] (Homo sapiens, TF-1, TF-1 cells); above 1 µM in assay [2] (Homo sapiens). Also, the IC50 in assay [3] (HT2, HT-2 cells) was determined as 0.8 µM.
Consider `CCC(c1ccc(-n2cc(-c3ccnc4[nH]cnc34)cn2)nc1)C(F)(F)F` (centres unmarked) [Example 1122, 7-(1-(5-(1,1,1-trifluorobutan-2-yl)pyridin-2-yl)-1H-pyrazol-4-yl)-3H-imidazo[4,5-b]pyridine], for which the IC50 at Recombinant JAK1 is above 0.1 µM; on Recombinant JAK2, above 0.5 µM; on Recombinant JAK3 it was above 0.5 µM; on Recombinant TYK2, above 1 µM; in assay [1] (Homo sapiens, TF-1, TF-1 cells) it was above 1 µM; in assay [2] (Homo sapiens), above 1 µM. The IC50 in assay [3] (HT2, HT-2 cells) is above 1 µM.
On to `CNCCC(c1ccc(-n2cc(-c3ccnc4[nH]cnc34)cn2)nc1)C(F)(F)F` (centres unmarked) [Example 1200, 3-(6-(4-(3H-imidazo[4,5-b]pyridin-7-yl)-1H-pyrazol-1-yl)pyridin-3-yl)-4,4,4-trifluoro-N-methylbutan-1-amine], for which the IC50 on Recombinant JAK1 stood at 0.023 µM; on Recombinant JAK2 it was 0.015 µM; on Recombinant JAK3, 0.009 µM; at Recombinant TYK2 it was 0.52 µM; in assay [1] (TF-1 cells) it was 0.1 µM; in assay [2], 1 µM. Further, the IC50 in assay [3] (HT-2 cells) came out at 0.6 µM.
Take `CC(C)S(=O)(=O)CCC(c1ccc(-n2cc(-c3ccnc4[nH]cnc34)cn2)nc1)C(F)(F)F` (centres unmarked) [Example 1186, 7-(1-(5-(1,1,1-trifluoro-4-(isopropylsulfonyl)butan-2-yl)pyridin-2-yl)-1H-pyrazol-4-yl)-3H-imidazo[4,5-b]pyridine]: the IC50 was below 0.1 µM on Recombinant JAK1; above 0.1 µM at Recombinant JAK2; above 0.1 µM on Recombinant JAK3; above 1 µM on Recombinant TYK2; above 0.8 µM in assay [1] (Homo sapiens, TF-1, TF-1 cells); above 1 µM in assay [2] (Homo sapiens). Also, the IC50 in assay [3] (HT2, HT-2 cells) was above 1 µM.
Regarding `CN1CCC([C@@](O)(c2ccc(-n3cc(-c4ccnc5[nH]cnc45)cn3)nc2)C(F)(F)F)C1` (stereo partly drawn) [Example 1235, (R)-1-(6-(4-(3H-imidazo[4,5-b]pyridin-7-yl)-1H-pyrazol-1-yl)pyridin-3-yl)-2,2,2-trifluoro-1-(1-methylpyrrolidin-3-yl)ethanol], the IC50 at Recombinant JAK2 is above 0.03 µM; on Recombinant TYK2, above 1 µM; in assay [1] (Homo sapiens, TF-1, TF-1 cells) it was 0.36 µM; in assay [2] (Homo sapiens) it was above 1 µM; in assay [3] (HT2, HT-2 cells), 0.55 µM; in assay [4] it was above 1 µM.
As for `CS(=O)(=O)NCCC(c1ccc(-n2cc(-c3ccnc4[nH]cnc34)cn2)nc1)C(F)(F)F` (centres unmarked) [Example 1143, N-(3-(6-(4-(3H-imidazo[4,5-b]pyridin-7-yl)-1H-pyrazol-1-yl)pyridin-3-yl)-4,4,4-trifluorobutyl)methanesulfonamide], the IC50 on Recombinant JAK1 is below 0.1 µM; on Recombinant JAK2, below 0.1 µM; at Recombinant JAK3, below 0.1 µM; on Recombinant TYK2 it was above 1 µM; in assay [1] (Homo sapiens, TF-1, TF-1 cells) it was 0.47 µM; in assay [2] (Homo sapiens) it was below 1 µM. Moreover, the IC50 in assay [3] (HT2, HT-2 cells) is 0.67 µM.
On to `O=C(NC1CC1)NC(c1ccc(-n2cc(-c3ccnc4[nH]cnc34)cn2)nc1)C(F)(F)F` (centres unmarked) [Example 1178, 1-(1-(6-(4-(3H-imidazo[4,5-b]pyridin-7-yl)-1H-Pyrazol-1-yl)pyridin-3-yl)-2,2,2-trifluoroethyl)-3-cyclopropylurea], for which the IC50 at Recombinant JAK1 was below 0.1 µM; at Recombinant JAK2, below 0.1 µM; at Recombinant JAK3, below 0.1 µM; at Recombinant TYK2, above 1 µM; in assay [1] (Homo sapiens, TF-1, TF-1 cells), above 1 µM; in assay [2] (Homo sapiens), 1 µM. In addition, the IC50 in assay [3] (HT2, HT-2 cells) was above 1 µM.
Turning to `CNC(=O)CC(c1ccc(-n2cc(-c3ccnc4[nH]cnc34)cn2)nc1)C(F)(F)F` (centres unmarked) [Example 1145, 3-(6-(4-(3H-imidazo[4,5-b]pyridin-7-yl)-1H-pyrazol-1-yl)pyridin-3-yl)-4,4,4-trifluoro-N-methylbutanamide], the IC50 is below 0.1 µM on Recombinant JAK1; above 0.1 µM at Recombinant JAK2; below 0.1 µM on Recombinant JAK3; above 1 µM on Recombinant TYK2; above 0.5 µM in assay [1] (Homo sapiens, TF-1, TF-1 cells); above 1 µM in assay [2] (Homo sapiens). For the same compound, the IC50 in assay [3] (HT2, HT-2 cells) is above 1 µM.
